Data published in publication PMC8213057, “Targeting ALK2: An Open Science Approach to Developing Therapeutics for the Treatment of Diffuse Intrinsic Pontine Glioma” (Journal of Medicinal Chemistry, 2020).
Values joined by “and” are separate entries in the source; they are usually repeats but may differ in a detail not shown here. Equal values may be shown once.

Columns and labels:
[1] = biological target: T1, DMPK (Homo sapiens, UniProt Q09013); test: biochemical; conditions: read-out: % enzyme activity, 1 μM; Run 1, Run 2
T1 sequence (Q09013 1-629): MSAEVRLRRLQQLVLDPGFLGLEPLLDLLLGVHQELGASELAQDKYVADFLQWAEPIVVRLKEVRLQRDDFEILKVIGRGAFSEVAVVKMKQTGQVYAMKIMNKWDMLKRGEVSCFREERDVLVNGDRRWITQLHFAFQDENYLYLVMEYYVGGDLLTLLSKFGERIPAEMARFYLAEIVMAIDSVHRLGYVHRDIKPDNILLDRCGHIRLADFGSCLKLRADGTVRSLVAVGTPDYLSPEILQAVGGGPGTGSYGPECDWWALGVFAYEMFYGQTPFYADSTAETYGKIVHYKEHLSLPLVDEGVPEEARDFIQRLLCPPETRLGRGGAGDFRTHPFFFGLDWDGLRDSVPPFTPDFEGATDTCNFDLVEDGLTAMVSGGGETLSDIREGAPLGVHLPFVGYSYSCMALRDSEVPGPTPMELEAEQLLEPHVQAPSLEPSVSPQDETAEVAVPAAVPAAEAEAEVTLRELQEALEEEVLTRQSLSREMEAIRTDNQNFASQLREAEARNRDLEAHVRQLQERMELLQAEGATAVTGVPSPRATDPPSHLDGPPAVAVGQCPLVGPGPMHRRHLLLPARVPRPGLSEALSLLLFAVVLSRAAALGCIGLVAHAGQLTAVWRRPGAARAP

[2] = biological target: CDK2/cyclin E2 (Homo sapiens, UniProt P24941); test: biochemical; conditions: read-out: % enzyme activity, 1 μM; Run 1, Run 2
[3] = biological target: T2, IRAK4 (Homo sapiens, UniProt Q9NWZ3); test: biochemical; conditions: read-out: % enzyme activity, 1 μM; Run 1, Run 2
T2 sequence (Q9NWZ3 1-460): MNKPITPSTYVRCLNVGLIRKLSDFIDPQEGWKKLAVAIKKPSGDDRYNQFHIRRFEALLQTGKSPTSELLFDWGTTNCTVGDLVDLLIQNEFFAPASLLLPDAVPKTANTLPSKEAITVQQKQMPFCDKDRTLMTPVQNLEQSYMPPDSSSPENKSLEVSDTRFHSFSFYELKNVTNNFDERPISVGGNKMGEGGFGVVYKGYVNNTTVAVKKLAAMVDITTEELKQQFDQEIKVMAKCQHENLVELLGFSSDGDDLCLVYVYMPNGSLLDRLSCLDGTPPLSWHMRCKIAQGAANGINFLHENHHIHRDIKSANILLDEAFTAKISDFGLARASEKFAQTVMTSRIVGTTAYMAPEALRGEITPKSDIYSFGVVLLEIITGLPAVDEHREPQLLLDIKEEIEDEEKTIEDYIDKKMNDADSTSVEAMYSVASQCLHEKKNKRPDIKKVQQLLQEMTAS

[4] = biological target: CAMK1b (Homo sapiens, UniProt Q6P2M8); conditions: 1 μM; Run 1, Run 2
[5] = biological target: T3, MST1/STK4 (Homo sapiens, UniProt Q13043); test: biochemical; conditions: read-out: % enzyme activity, 1 μM; Run 1, Run 2
T3 sequence (Q13043 1-487): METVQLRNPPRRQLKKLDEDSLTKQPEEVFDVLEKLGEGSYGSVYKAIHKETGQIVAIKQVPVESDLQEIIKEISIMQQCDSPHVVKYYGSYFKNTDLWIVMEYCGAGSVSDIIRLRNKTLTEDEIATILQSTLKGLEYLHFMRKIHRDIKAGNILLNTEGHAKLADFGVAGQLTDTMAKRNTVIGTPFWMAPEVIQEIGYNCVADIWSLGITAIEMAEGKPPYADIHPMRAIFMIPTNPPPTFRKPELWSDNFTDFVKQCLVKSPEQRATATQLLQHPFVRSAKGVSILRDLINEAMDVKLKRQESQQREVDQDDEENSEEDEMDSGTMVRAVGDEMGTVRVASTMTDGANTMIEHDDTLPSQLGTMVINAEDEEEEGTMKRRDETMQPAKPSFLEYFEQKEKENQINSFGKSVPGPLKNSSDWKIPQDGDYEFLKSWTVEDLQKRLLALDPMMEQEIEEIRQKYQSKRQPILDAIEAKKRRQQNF

[6] = system: ALK3/BMPR1A
[7] = biological target: T4, LKB1 (Homo sapiens, UniProt Q15831); test: biochemical; conditions: read-out: % enzyme activity, 1 μM; Run 1, Run 2
T4 sequence (Q15831 1-433): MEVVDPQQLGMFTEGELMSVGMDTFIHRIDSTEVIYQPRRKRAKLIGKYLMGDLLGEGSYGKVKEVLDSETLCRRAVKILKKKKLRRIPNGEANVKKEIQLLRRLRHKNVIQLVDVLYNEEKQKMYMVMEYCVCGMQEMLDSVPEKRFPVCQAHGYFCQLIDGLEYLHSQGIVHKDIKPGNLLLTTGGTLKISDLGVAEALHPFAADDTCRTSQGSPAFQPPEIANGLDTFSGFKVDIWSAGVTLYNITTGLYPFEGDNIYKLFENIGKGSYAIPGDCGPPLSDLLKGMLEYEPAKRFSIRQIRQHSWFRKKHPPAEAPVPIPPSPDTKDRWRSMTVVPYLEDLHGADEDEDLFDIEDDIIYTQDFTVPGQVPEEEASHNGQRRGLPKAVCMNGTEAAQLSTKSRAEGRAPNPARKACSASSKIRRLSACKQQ
T4 sequence (Q7RTN6 1-431 partner): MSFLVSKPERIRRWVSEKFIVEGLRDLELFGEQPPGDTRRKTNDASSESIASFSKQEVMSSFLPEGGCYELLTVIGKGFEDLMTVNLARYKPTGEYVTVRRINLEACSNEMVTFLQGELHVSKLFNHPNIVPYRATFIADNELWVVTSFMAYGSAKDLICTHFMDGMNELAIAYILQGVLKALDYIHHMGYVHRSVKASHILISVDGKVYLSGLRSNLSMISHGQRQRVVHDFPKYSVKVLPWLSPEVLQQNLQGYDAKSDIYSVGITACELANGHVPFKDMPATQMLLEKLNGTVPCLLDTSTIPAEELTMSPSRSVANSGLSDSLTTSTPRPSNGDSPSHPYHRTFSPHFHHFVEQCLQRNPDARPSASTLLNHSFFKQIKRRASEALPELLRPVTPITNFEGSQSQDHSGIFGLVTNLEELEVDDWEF
T4 sequence (Q9Y376 1-341 partner): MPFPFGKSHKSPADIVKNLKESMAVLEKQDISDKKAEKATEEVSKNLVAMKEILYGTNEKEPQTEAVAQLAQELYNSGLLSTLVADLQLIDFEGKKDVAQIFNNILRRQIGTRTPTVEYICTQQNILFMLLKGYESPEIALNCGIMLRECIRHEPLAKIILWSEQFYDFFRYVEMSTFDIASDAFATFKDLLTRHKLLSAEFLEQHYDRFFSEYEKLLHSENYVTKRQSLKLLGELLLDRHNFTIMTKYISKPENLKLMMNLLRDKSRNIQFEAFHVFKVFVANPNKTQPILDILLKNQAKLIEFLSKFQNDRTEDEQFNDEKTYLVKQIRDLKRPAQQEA

Chain of CAMK1b (Q6P2M8 whole entry): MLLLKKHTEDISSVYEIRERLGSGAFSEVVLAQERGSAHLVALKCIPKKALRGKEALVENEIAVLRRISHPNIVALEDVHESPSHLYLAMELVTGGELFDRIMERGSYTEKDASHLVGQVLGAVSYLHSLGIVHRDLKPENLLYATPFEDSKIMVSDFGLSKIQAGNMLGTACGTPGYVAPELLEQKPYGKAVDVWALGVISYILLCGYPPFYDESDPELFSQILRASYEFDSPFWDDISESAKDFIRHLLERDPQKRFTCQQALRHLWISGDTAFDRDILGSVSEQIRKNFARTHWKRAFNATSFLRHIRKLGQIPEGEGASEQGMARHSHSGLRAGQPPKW

SMILES	remaining activity at 1 µM [1] [%]	remaining activity at 1 µM [2] [%]	remaining activity at 1 µM [3] [%]	% enzyme activity [4] [%]	remaining activity at 1 µM [5] [%]	% enzyme activity at 1 μM [6]	remaining activity at 1 µM [7] [%]
COc1cc(-c2cncc(-c3ccc(N4CCN(C)CC4)cc3)c2C)cc(F)c1C(N)=O [Compound 26a, 2-Fluoro-6-methoxy-4-(4-methyl-5-(4-(4-methylpiperazin-1-yl)phenyl)pyridin-3-yl)benzamide]	109	108	78.5	95.63	101	40.2% and 38.4%	80.7
COc1cc(-c2cncc(-c3ccc(N4C[C@@H](C)N(C)[C@@H](C)C4)cc3)c2C)cc(F)c1C(N)=O [Compound 26c, 2-Fluoro-6-methoxy-4-(4-methyl-5-(4-((3R,5S)-3,4,5-trimethylpiperazin-1-yl)phenyl)pyridin-3-yl)benzamide]	105	95	84.9	99.02	103	50.5% and 50%	96.1
